# Patent US20250163104A1, “MACROCYCLIC IMMUNOMODULATORS” (priority 2021, published 2025)
# Where a SMILES comes first, the peptide text is derived from it. Bridges are numbered along the chain shown (N, C = ends). [ ]: non-standard residue; d: D form. The star is where a group is joined. Bip(3'-COOH) = N[C@@H](Cc1ccc(-c2cccc(C(=O)O)c2)cc1)C(=O)O; Phe(4-COOH) = N[C@@H](Cc1ccc(C(=O)O)cc1)C(=O)O; Bip = N[C@@H](Cc1ccc(-c2ccccc2)cc1)C(=O)O; Phe(4-CN) = N#Cc1ccc(C[C@H](N)C(=O)O)cc1; Phe(3-Me) = Cc1cccc(C[C@H](N)C(=O)O)c1; Phe(2-F) = N[C@@H](Cc1ccccc1F)C(=O)O; Val(3-OH) = CC(C)(O)[C@H](N)C(=O)O; 4Pal = N[C@@H](Cc1ccncc1)C(=O)O; Cha = N[C@@H](CC1CCCCC1)C(=O)O; Cit = NC(=O)NCCC[C@H](N)C(=O)O; Carboxymethyl = O=C(O)C*; Orn = NCCC[C@H](N)C(=O)O; Pra = C#CC[C@H](N)C(=O)O; Dab = NCC[C@H](N)C(=O)O; Dap = NC[C@H](N)C(=O)O; Piv = CC(C)(C)C(=O)*; Propargyl = C#CC*
# Biological target: T1, human PD-1 / PD-L1-Ig binding on Jurkat cell line over-expressing human PD-1 (Jurkat-PD-1) (Homo sapiens, UniProt Q15116)
# T1 construct: expressed in transfected cells; host or cells: Jurkat
# Assay: Jurkat-PD-1 Cell Binding High-Content Screening Assay (CBA)
# Format: cell-based
# Settings: Jurkat-PD-1 cells, PE-labeled PD-L1-Ig 20 nM final; read-out: Jurkat HPD1_PDL1 IC50
# Procedure, shortened: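 Compounds were preincubated with Jurkat-hPD-1 cells in DMEM plus 10% fetal calf serum for 2 h at 37° C. Phycoerythrin-labeled PD-L1-Ig (20 nM final) was then added for 1 hour. Cells were fixed in 4% paraformaldehyde with Hoechst 33342, and bound fluorescence was quantified by high-content imaging.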
# T1 sequence (Q15116 25-288): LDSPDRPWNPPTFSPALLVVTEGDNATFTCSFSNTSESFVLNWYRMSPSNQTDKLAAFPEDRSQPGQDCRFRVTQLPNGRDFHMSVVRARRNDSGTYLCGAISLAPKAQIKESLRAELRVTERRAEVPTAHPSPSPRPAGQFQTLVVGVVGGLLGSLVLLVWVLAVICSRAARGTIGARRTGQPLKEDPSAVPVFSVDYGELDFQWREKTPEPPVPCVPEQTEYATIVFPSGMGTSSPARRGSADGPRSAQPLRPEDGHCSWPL
row,SMILES,IC50
1,Cc1cccc(C[C@@H]2NC(=O)[C@H](CC(=O)O)NC(=O)[C@H](Cc3ccc(C(=O)O)cc3)NC(=O)[C@H](Cc3ccncc3)NC(=O)CSC[C@@H](C(N)=O)NC(=O)[C@H](CCC(=O)O)NC(=O)[C@H](C(C)C)NC(=O)[C@H](CC3CCCCC3)NC(=O)[C@H](CCN)NC(=O)[C@@H](CC(C)C)NC(=O)[C@H](CCCN)NC(=O)[C@H](CCCNC(N)=O)NC(=O)[C@H](Cc3ccc(-c4ccccc4)cc3)NC(=O)[C@H](C(C)C)NC2=O)c1 [Compound 2269] ({CH2CO}-[4Pal][Phe(4-COOH)]D[Phe(3-Me)]V[Bip][Cit][Orn][dL][Dab][Cha]VEC-NH2; thioether N-14),34.1 nM
2,Cc1cccc(C[C@@H]2NC(=O)[C@H](CC(=O)O)NC(=O)[C@H](Cc3ccc(OCC(=O)O)cc3)NC(=O)[C@H](CCCNC(=N)N)NC(=O)CSC[C@@H](C(N)=O)NC(=O)[C@H]([C@@H](C)O)NC(=O)[C@H](C(C)C)NC(=O)[C@H](CC3CCCCC3)NC(=O)[C@H](CCN)NC(=O)[C@@H](CC(C)C)NC(=O)[C@H](CCCN)NC(=O)[C@H](CCCN)NC(=O)[C@H](Cc3ccc(-c4ccccc4)cc3)NC(=O)[C@H](Cc3ccc(O)cc3)NC2=O)c1 [Compound 2055] ({CH2CO}-RY(Carboxymethyl)D[Phe(3-Me)]Y[Bip][Orn][Orn][dL][Dab][Cha]VTC-NH2; thioether N-14),97.3 nM
3,C#CC[C@H](NC(=O)[C@H](CCN)NC(=O)[C@@H]1CSCC(=O)N[C@@H](CN)C(=O)N[C@@H](Cc2ccc(OCC(=O)O)cc2)C(=O)N[C@@H](CC(=O)O)C(=O)N[C@@H](Cc2cccc(C)c2)C(=O)N[C@@H](Cc2ccc(OCC(=O)O)cc2)C(=O)N[C@@H](Cc2ccc(-c3ccccc3)cc2)C(=O)N[C@@H](Cc2ccc(OCC(=O)O)cc2)C(=O)N[C@@H](CCCN)C(=O)N[C@H](CC(C)C)C(=O)N[C@@H](CCN)C(=O)N[C@@H](CC2CCCCC2)C(=O)N[C@@H](C(C)(C)O)C(=O)N[C@@H](CO)C(=O)N1)C(N)=O [Compound 1860] ({CH2CO}-[Dap]Y(Carboxymethyl)D[Phe(3-Me)]Y(Carboxymethyl)[Bip]Y(Carboxymethyl)[Orn][dL][Dab][Cha][Val(3-OH)]SC[Dab][Pra]-NH2; thioether N-14),3.9 nM
4,Cc1cccc(C[C@@H]2NC(=O)[C@H](CC(=O)O)NC(=O)[C@H](Cc3ccc(OCC(=O)O)cc3)NC(=O)[C@H](CCNC(=O)C(C)(C)C)NC(=O)CSC[C@@H](C(=O)N[C@@H](CCN)C(N)=O)NC(=O)[C@H](CCCN)NC(=O)[C@H](C(C)C)NC(=O)[C@H](CC3CCCCC3)NC(=O)[C@H](CCN)NC(=O)[C@@H](CC(C)C)NC(=O)[C@H](CCCN)NC(=O)[C@H](Cc3ccc(O)cc3)NC(=O)[C@H](Cc3ccc(-c4ccccc4)cc3)NC(=O)[C@H](Cc3ccc(O)cc3)NC2=O)c1 [Compound 2040] ({CH2CO}-[Dab](Piv)Y(Carboxymethyl)D[Phe(3-Me)]Y[Bip]Y[Orn][dL][Dab][Cha]V[Orn]C[Dab]-NH2; thioether N-14),4.9 nM
5,C#CC[C@H](NC(=O)[C@H](CCN)NC(=O)[C@@H]1CSCC(=O)N[C@@H](CN)C(=O)N[C@@H](Cc2ccc(C(=O)O)cc2)C(=O)N[C@@H](CC(=O)O)C(=O)N[C@@H](Cc2cccc(C)c2)C(=O)N[C@@H](Cc2ccc(C(=O)O)cc2)C(=O)N[C@@H](Cc2ccc(-c3ccccc3)cc2)C(=O)N[C@@H](Cc2ccc(C(=O)O)cc2)C(=O)N[C@@H](CCCN)C(=O)N[C@H](CC(C)C)C(=O)N[C@@H](CCN)C(=O)N[C@@H](CC2CCCCC2)C(=O)N[C@@H](C(C)(C)O)C(=O)N[C@@H](Cc2cnc[nH]2)C(=O)N1)C(N)=O [Compound 1848] ({CH2CO}-[Dap][Phe(4-COOH)]D[Phe(3-Me)][Phe(4-COOH)][Bip][Phe(4-COOH)][Orn][dL][Dab][Cha][Val(3-OH)]HC[Dab][Pra]-NH2; thioether N-14),8.3 nM
6,CC(C)C[C@H]1NC(=O)[C@H](CCCN)NC(=O)[C@H](CCC(=O)O)NC(=O)[C@H](Cc2ccc(-c3ccccc3)cc2)NC(=O)[C@H](C(C)C)NC(=O)[C@H](Cc2c[nH]c3ccccc23)NC(=O)[C@H](CC(=O)O)NC(=O)[C@H](Cc2ccc(OCC(=O)O)cc2)NC(=O)[C@H](CN)NC(=O)CSC[C@@H](C(=O)N[C@@H](C)C(N)=O)NC(=O)[C@H]([C@@H](C)O)NC(=O)[C@H](C(C)C)NC(=O)[C@H](CC2CCCCC2)NC(=O)[C@H](CC(N)=O)NC1=O [Compound 1512] ({CH2CO}-[Dap]Y(Carboxymethyl)DWV[Bip]E[Orn][dL]N[Cha]VTCA-NH2; thioether N-14),22.9 nM
7,CC[C@H](C)[C@@H]1NC(=O)[C@H](Cc2ccc(-c3ccccc3)cc2)NC(=O)[C@H](C(C)C)NC(=O)[C@H](Cc2cccc(C)c2)NC(=O)[C@H](CC(=O)O)NC(=O)[C@H](Cc2ccncc2)NC(=O)[C@H](CN)NC(=O)CSC[C@@H](C(N)=O)NC(=O)[C@H]([C@@H](C)O)NC(=O)[C@H](C(C)C)NC(=O)[C@H](CC(C)C)NC(=O)[C@H](CCN)NC(=O)[C@@H](CC(C)C)NC(=O)[C@H](CCCN)NC1=O [Compound 1554] ({CH2CO}-[Dap][4Pal]D[Phe(3-Me)]V[Bip]I[Orn][dL][Dab]LVTC-NH2; thioether N-14),96.2 nM
8,CC(C)C[C@H]1NC(=O)[C@H](CCCN)NC(=O)[C@H](CCC(=O)O)NC(=O)[C@H](Cc2ccc(-c3ccccc3)cc2)NC(=O)[C@H](C(C)C)NC(=O)[C@H](Cc2ccccc2F)NC(=O)[C@H](CC(=O)O)NC(=O)[C@H](Cc2ccc(C#N)cc2)NC(=O)[C@H](Cc2ccccc2)NC(=O)CSC[C@@H](C(=O)N[C@@H](C)C(N)=O)NC(=O)[C@H]([C@@H](C)O)NC(=O)[C@H](C(C)C)NC(=O)[C@H](CC2CCCCC2)NC(=O)[C@H](CCN)NC1=O [Compound 2213] ({CH2CO}-F[Phe(4-CN)]D[Phe(2-F)]V[Bip]E[Orn][dL][Dab][Cha]VTCA-NH2; thioether N-14),59.2 nM
9,CC(C)C[C@H]1NC(=O)[C@H](CCCN)NC(=O)[C@H](CCC(=O)O)NC(=O)[C@H](Cc2ccc(-c3ccccc3)cc2)NC(=O)[C@H](C(C)C)NC(=O)[C@H](Cc2c[nH]c3ccccc23)NC(=O)[C@H](CC(=O)O)NC(=O)[C@H](Cc2ccc(-c3cccc(C(=O)O)c3)cc2)NC(=O)[C@H](CC(N)=O)NC(=O)CSC[C@@H](C(=O)N[C@@H](C)C(N)=O)NC(=O)[C@H]([C@@H](C)O)NC(=O)[C@H](C(C)C)NC(=O)[C@H](CC2CCCCC2)NC(=O)[C@H](CCN)NC1=O [Compound 2165] ({CH2CO}-N[Bip(3'-COOH)]DWV[Bip]E[Orn][dL][Dab][Cha]VTCA-NH2; thioether N-14),24.1 nM

# The remaining lines, values ahead:
row,IC50,SMILES
1,14.1 nM,CCC(C)[C@@H]1NC(=O)[C@H](Cc2ccc(-c3ccccc3)cc2)NC(=O)[C@H](C(C)C)NC(=O)[C@H](Cc2cccc(C)c2)NC(=O)[C@H](CC(=O)O)NC(=O)[C@H](Cc2ccc(-c3cccc(C(=O)O)c3)cc2)NC(=O)[C@H](CN)NC(=O)CSC[C@@H](C(=O)N[C@@H](C)C(N)=O)NC(=O)[C@H]([C@@H](C)O)NC(=O)[C@H](C(C)C)NC(=O)[C@H](CC2CCCCC2)NC(=O)[C@H](CCN)NC(=O)[C@@H](CC(C)C)NC(=O)[C@H](CCCN)NC1=O (stereo partly drawn) [Compound 2224]
2,9.9 nM,Cc1cccc(C[C@@H]2NC(=O)[C@H](CC(=O)O)NC(=O)[C@H](Cc3ccc(C(=O)O)cc3)NC(=O)[C@H](Cc3ccc(OCC(=O)O)cc3)NC(=O)CSC[C@@H](C(=O)N[C@@H](C)C(N)=O)NC(=O)[C@H]([C@@H](C)O)NC(=O)[C@H](C(C)C)NC(=O)[C@H](CC3CCCCC3)NC(=O)[C@H](CCN)NC(=O)[C@@H](CC(C)C)NC(=O)[C@H](CCCN)NC(=O)[C@H](CCCN)NC(=O)[C@H](Cc3ccc(-c4ccccc4)cc3)NC(=O)[C@H](C(C)C)NC2=O)c1 [Compound 1414]
3,8.5 nM,Cc1cccc(C[C@@H]2NC(=O)[C@H](CC(=O)O)NC(=O)[C@H](Cc3ccc(C(=O)O)cc3)NC(=O)[C@H](Cc3ccncc3)NC(=O)CSC[C@@H](C(=O)N[C@@H](C)C(N)=O)NC(=O)[C@H]([C@@H](C)O)NC(=O)[C@H](C(C)C)NC(=O)[C@H](CC3CCCCC3)NC(=O)[C@H](CCN)NC(=O)[C@@H](CC(C)C)NC(=O)[C@H](CCCN)NC(=O)[C@H](C3CC3)NC(=O)[C@H](Cc3ccc(-c4ccccc4)cc3)NC(=O)[C@H](C(C)C)NC2=O)c1 [Compound 1617]
4,6 nM,Cc1cccc(C[C@@H]2NC(=O)[C@H](CC(=O)O)NC(=O)[C@H](Cc3ccc(OCC(=O)O)cc3)NC(=O)[C@H](CN)NC(=O)CSC[C@@H](C(=O)N[C@@H](C)C(N)=O)NC(=O)[C@H]([C@@H](C)O)NC(=O)[C@H](C(C)C)NC(=O)[C@H](CC3CCCCC3)NC(=O)[C@H](CCN)NC(=O)[C@@H](CC(C)C)NC(=O)[C@H](CCCN)NC(=O)[C@H](C(C)C)NC(=O)[C@H](Cc3ccc(-c4ccccc4)cc3)NC(=O)[C@H](C(C)C)NC2=O)c1 [Compound 1212]
5,43.7 nM,CCC(C)[C@@H]1NC(=O)[C@H](Cc2ccc(-c3ccccc3)cc2)NC(=O)[C@H](C(C)C)NC(=O)[C@H](Cc2cccc(C)c2)NC(=O)[C@H](CC(=O)O)NC(=O)[C@H](Cc2ccc(OCC(=O)O)cc2)NC(=O)[C@H](CN)NC(=O)CSC[C@@H](C(=O)N[C@@H](C)C(N)=O)NC(=O)[C@H](CO)NC(=O)[C@H](C(C)C)NC(=O)[C@H](CC2CCCCC2)NC(=O)[C@H](CCN)NC(=O)[C@@H](CC(C)C)NC(=O)[C@H](CCCN)NC1=O (stereo partly drawn) [Compound 2533]
6,133 nM,C#CCOc1ccc(C[C@@H]2NC(=O)[C@@H](CC(C)C)NC(=O)[C@H](CCCN)NC(=O)[C@H](C(C)C)NC(=O)[C@H](Cc3ccc(-c4ccccc4)cc3)NC(=O)[C@H](C(C)C)NC(=O)[C@H](Cc3cccc(C)c3)NC(=O)[C@H](CC(=O)O)NC(=O)[C@H](Cc3ccc(C(=O)O)cc3)NC(=O)[C@H](CN)NC(=O)CSC[C@@H](C(=O)N[C@@H](CCN)C(N)=O)NC(=O)[C@H]([C@@H](C)O)NC(=O)[C@H](C(C)C)NC(=O)[C@H](CC3CCCCC3)NC2=O)cc1 [Compound 2026] ({CH2CO}-[Dap][Phe(4-COOH)]D[Phe(3-Me)]V[Bip]V[Orn][dL]Y(Propargyl)[Cha]VTC[Dab]-NH2; thioether N-14)
